Measured values as given in patent US20240391862A1, “(1,4,5-TRISUBSTITUTED-1H-PYRAZOL-3-YL)OXY-2-ALKOXY ALKYL ACIDS AND THEIR DERIVATIVES, THEIR SALTS AND THEIR USE AS HERBICIDAL AGENTS” (Bayer AKtiengesellschaft, priority 2021, published 2024).

Tests used:
KCHSC = test: Post-emergence herbicidal effect, greenhouse pot test; assay type: in vivo
Procedure, shortened: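 Visual rating of activity against untreated plants (100% = plants died, 0% = no effect), done about 3 weeks after treatment. Compounds applied at 20–320 g/ha as aqueous spray (600 l/ha, 0.5% additive) from WP or EC formulations onto one-leaf-stage plants grown in sandy loam under greenhouse conditions.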

VERPE = test: as above; assay type: in vivo, Veronica persica
Procedure, shortened: (§1)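 Sandy loam pots, greenhouse. One-leaf stage (2–3 wk after sowing) foliar spray; WP/EC in water + 0.5% additive, 600 l/ha; 20–320 g/ha. Visual score ~3 wk, 0–100% vs untreated.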

ABUTH = test: as above; assay type: in vivo, Abutilon theophrasti; details: visual rating about 3 weeks after treatment
Procedure, shortened: as §1

ZEAMX = test: Post-emergence herbicidal effect and crop plant compatibility, greenhouse pot test; assay type: in vivo, Zea mays; details: one-leaf stage, rated visually after about 3 weeks vs untreated controls
Procedure, shortened: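 Visual % activity scored roughly 3 weeks post-spray against untreated plants, where 100% means death and 0% equals control. Plants were treated at the one-leaf stage, 2 to 3 weeks after sowing in sandy loam, at 20 to 320 g/ha.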

LOLRI = test: Post-emergence herbicidal effect, greenhouse pot test; assay type: in vivo, Lolium rigidum
Procedure, shortened: as §1

ECHCG = test: as above; assay type: in vivo, Echinochloa crus-galli
Procedure, shortened: as §1

ALOMY = test: as above; assay type: in vivo, Alopecurus myosuroides; details: visual rating about 3 weeks after treatment
Procedure, shortened: as §1

AVEFA = test: as above; assay type: in vivo, Avena fatua; details: visual rating about 3 weeks after treatment
Procedure, shortened: as §1

DIGSA = test: as above; assay type: in vivo, Digitaria sanguinalis; details: 320 g/ha, visual rating about 3 weeks after treatment
Procedure, shortened: as §1

POLCO = test: as above; assay type: in vivo, Fallopia convolvulus
Procedure, shortened: as §1

SETVI = test: as above; assay type: in vivo, Setaria viridis
Procedure, shortened: as §1

VIOTR = test: as above; assay type: in vivo, Viola tricolor
Procedure, shortened: as §1

PHBPU = test: as above; assay type: in vivo, Ipomoea purpurea
Procedure, shortened: as §1

AMARE = test: as above; assay type: in vivo, Amaranthus retroflexus; details: Amaranthus retroflexus, 504 h, visual rating about 3 weeks after treatment, read-out: Post-emergence effect against AMARE
Procedure, shortened: as §1

MATIN = test: as above; assay type: in vivo, Tripleurospermum inodorum; details: Tripleurospermum inodorum, 504 h, read-out: Post-emergence effect against MATIN in %
Procedure, shortened: as §1

[1] = 504 h, read-out: Post-emergence effect against KCHSC in %

COC(Oc1nn(-c2ncccc2F)c(-c2ccc(F)nc2)c1C1CC1)C(=O)O (stereo not shown) [Example I-90]
80%: pest or weed control at 20 g/ha (KCHSC; [1]) | Post-emergence effect against VERPE in % (VERPE; 320 g/ha) | Post-emergence effect against DIGSA (DIGSA) | Post-emergence effect against POLCO in % (POLCO; 320 g/ha) | pest or weed control at 320 g/ha (AMARE)
0%: Post-emergence effect at 20 g/ha against ZEAMX in % (ZEAMX; 20 g/ha) | Post-emergence effect at 80 g/ha against ZEAMX in % (ZEAMX; 80 g/ha) | Post-emergence effect at 320 g/ha against ZEAMX in % (ZEAMX; 320 g/ha)
90%: Post-emergence effect against KCHSC in % (KCHSC; 320 g/ha) | pest or weed control at 80 g/ha (KCHSC; [1]) | Post-emergence effect against ABUTH (ABUTH; 320 g/ha) | Post-emergence effect against LOLRI in % (LOLRI; 320 g/ha) | Post-emergence effect against ECHCG in % (ECHCG; 80 g/ha) | Post-emergence effect against ECHCG in % (ECHCG; 320 g/ha) | Post-emergence effect against ALOMY (ALOMY; 320 g/ha) | Post-emergence effect against AVEFA (AVEFA; 320 g/ha) | Post-emergence effect against SETVI in % (SETVI; 320 g/ha) | Post-emergence effect against VIOTR in % (VIOTR; 320 g/ha) | Post-emergence effect against PHBPU in % (PHBPU; 320 g/ha)

CCOC(=O)C(OC)Oc1nn(-c2ncccc2F)c(-c2cncc(F)c2)c1C1CC1 (stereo not shown) [Example I-113]
100%: pest or weed control at 320 g/ha (LOLRI; Lolium rigidum, 504 h, 320 g/ha, read-out: Post-emergence effect against LOLRI in %) | pest or weed control at 80 g/ha (ALOMY; Alopecurus myosuroides, 504 h, 80 g/ha, read-out: Post-emergence effect against ALOMY) | pest or weed control at 320 g/ha (ALOMY; Alopecurus myosuroides, 504 h, 320 g/ha, read-out: Post-emergence effect against ALOMY) | pest or weed control at 80 g/ha (AVEFA; Avena fatua, 504 h, 80 g/ha, read-out: Post-emergence effect against AVEFA) | pest or weed control at 320 g/ha (AVEFA; Avena fatua, 504 h, 320 g/ha, read-out: Post-emergence effect against AVEFA) | pest or weed control at 320 g/ha (PHBPU; Ipomoea purpurea, 504 h, 320 g/ha, read-out: Post-emergence effect against PHBPU in %)
80%: pest or weed control at 20 g/ha (VERPE; Veronica persica, 504 h, 20 g/ha, read-out: Post-emergence effect against VERPE in %) | pest or weed control at 20 g/ha (AVEFA; Avena fatua, 504 h, 20 g/ha, read-out: Post-emergence effect against AVEFA) | pest or weed control at 80 g/ha (POLCO; Fallopia convolvulus, 504 h, 80 g/ha, read-out: Post-emergence effect against POLCO in %) | pest or weed control at 320 g/ha (POLCO; Fallopia convolvulus, 504 h, 320 g/ha, read-out: Post-emergence effect against POLCO in %) | pest or weed control at 80 g/ha (MATIN; 80 g/ha) | pest or weed control at 320 g/ha (MATIN; 320 g/ha) | pest or weed control at 20 g/ha (AMARE; 20 g/ha) | pest or weed control at 80 g/ha (AMARE; 80 g/ha) | pest or weed control at 320 g/ha (AMARE)
90%: pest or weed control at 20 g/ha (KCHSC; [1]) | pest or weed control at 80 g/ha (KCHSC; [1]) | pest or weed control at 320 g/ha (KCHSC; 504 h, 320 g/ha, read-out: Post-emergence effect against KCHSC in %) | pest or weed control at 80 g/ha (VERPE; Veronica persica, 504 h, 80 g/ha, read-out: Post-emergence effect against VERPE in %) | pest or weed control at 320 g/ha (VERPE; Veronica persica, 504 h, 320 g/ha, read-out: Post-emergence effect against VERPE in %) | pest or weed control at 20 g/ha (ABUTH; Abutilon theophrasti, 504 h, 20 g/ha, read-out: Post-emergence effect against ABUTH) | pest or weed control at 80 g/ha (ABUTH; Abutilon theophrasti, 504 h, 80 g/ha, read-out: Post-emergence effect against ABUTH) | pest or weed control at 320 g/ha (ABUTH; Abutilon theophrasti, 504 h, 320 g/ha, read-out: Post-emergence effect against ABUTH) | pest or weed control at 80 g/ha (LOLRI; Lolium rigidum, 504 h, 80 g/ha, read-out: Post-emergence effect against LOLRI in %) | pest or weed control at 20 g/ha (ECHCG; Echinochloa crus-galli, 504 h, 20 g/ha, visual rating about 3 weeks after treatment, read-out: Post-emergence effect against ECHCG) | pest or weed control at 80 g/ha (ECHCG; Echinochloa crus-galli, 504 h, 80 g/ha, read-out: Post-emergence effect against ECHCG in %) | pest or weed control at 320 g/ha (ECHCG; Echinochloa crus-galli, 504 h, 320 g/ha, read-out: Post-emergence effect against ECHCG in %) | pest or weed control at 320 g/ha (DIGSA; Digitaria sanguinalis, 504 h, read-out: Post-emergence effect against DIGSA) | pest or weed control at 20 g/ha (SETVI; Setaria viridis, 504 h, 20 g/ha, read-out: Post-emergence effect against SETVI in %) | pest or weed control at 80 g/ha (SETVI; Setaria viridis, 504 h, 80 g/ha, read-out: Post-emergence effect against SETVI in %) | pest or weed control at 320 g/ha (SETVI; Setaria viridis, 504 h, 320 g/ha, read-out: Post-emergence effect against SETVI in %) | pest or weed control at 20 g/ha (VIOTR; Viola tricolor, 504 h, 20 g/ha, read-out: Post-emergence effect against VIOTR in %) | pest or weed control at 80 g/ha (VIOTR; Viola tricolor, 504 h, 80 g/ha, read-out: Post-emergence effect against VIOTR in %) | pest or weed control at 320 g/ha (VIOTR; Viola tricolor, 504 h, 320 g/ha, read-out: Post-emergence effect against VIOTR in %) | pest or weed control at 20 g/ha (PHBPU; Ipomoea purpurea, 504 h, 20 g/ha, read-out: Post-emergence effect against PHBPU in %) | pest or weed control at 80 g/ha (PHBPU; Ipomoea purpurea, 504 h, 80 g/ha, read-out: Post-emergence effect against PHBPU in %)
